Among the data in US11008572B2, “Methods and compositions for modulating splicing” (SKYHAWK THERAPEUTICS, INC., priority 2017, dated 2021) are IC50 values, retold here.

pIC50: −log10 of the molar value. Bounds are passed on as bounds.

The test system of the first test is A-673 cells. The test is described as follows: Cell viability, crystal violet staining. Type of test: cell-based. Particulars: Homo sapiens, A673, cell viability, read-out: A-673 IC50 (nM) Cell viability. As to the method: To measure cell viability, cells were plated in 96-well plastic tissue culture plates at a density of 5×10^3 cells/well. Twenty-four hours after plating, cells were treated with various SMSMs. After 72 hours, the cell culture media were removed and plates were stained with […] of a solution containing 0.5% crystal violet and 25% methanol, rinsed with deionized water, dried overnight, and resuspended in […] citrate buffer (0.1 M sodium citrate in 50% ethanol) to assess plating efficiency. Intensity of crystal violet staining, assessed at 570 nm and quantified using a Vmax Kinetic Microplate Reader and Softmax software (Molecular Devices Corp., Menlo Park, Calif.), were directly proportional to cell number. Data were normalized to vehicle-treated cells and were presented as the mean±SE from representative experiments. SMSMs that are effective were determined for various cells lines.
A-673 cell viability […], splicing (IC50) and brain AUC/Plasma AUC of SMSMs were determined. As shown in the tables below SMSMs had high CNS exposure.
As to `CN(c1ccc(-c2ccc(-n3cc(F)cn3)cc2O)nn1)[C@H]1C[C@]2(C)CC[C@](C)(C1)N2` [compound 175, 2-(6-(((1R,3s,5S)-1,5-dimethyl-8-azabicyclo[3.2.1]octan-3-yl)(methyl)amino)pyridazin-3-yl)-5-(4-fluoro-1H-pyrazol-1-yl)phenol], the IC50 lay in the range of 10 to 100 nM. For `CN(c1ccc(-c2ccc(-n3cnc(F)c3)cc2O)nn1)[C@H]1C[C@]2(C)CC[C@](C)(C1)N2` [compound 176, 2-(6-(((1R,3s,5S)-1,5-dimethyl-8-azabicyclo[3.2.1]octan-3-yl)(methyl)amino)pyridazin-3-yl)-5-(4-fluoro-1H-imidazol-1-yl)phenol], the IC50 is 10 to 100 nM. Take `Cc1cc(-c2ccc(N(C)[C@H]3C[C@]4(C)CC[C@](C)(C3)N4)nn2)c(O)cc1-c1ccn(C)c(=O)c1` [compound 178, 4-(4-(6-(((1R,3s,5S)-1,5-dimethyl-8-azabicyclo[3.2.1]octan-3-yl)(methyl)amino)pyridazin-3-yl)-5-hydroxy-2-methylphenyl)-1-methylpyridin-2(1H)-one]: the IC50 was 251 to 500 nM. Same read-out and setting: next, `CN(c1ccc(-c2ccc(-c3cnn(C(F)F)c3)cc2O)nn1)[C@H]1C[C@]2(C)CC[C@](C)(C1)N2` [compound 179, 5-(1-(difluoromethyl)-1H-pyrazol-4-yl)-2-(6-(((1R,3s,5S)-1,5-dimethyl-8-azabicyclo[3.2.1]octan-3-yl)(methyl)amino)pyridazin-3-yl)phenol]: 10 to 100 nM; `CN(c1ccc(-c2ccc(-c3ncn(C)c(=O)n3)cc2O)nn1)[C@H]1C[C@]2(C)CC[C@](C)(C1)N2` [compound 181, 4-(4-(6-(((1R,3s,5S)-1,5-dimethyl-8-azabicyclo[3.2.1]octan-3-yl)(methyl)amino)pyridazin-3-yl)-3-hydroxyphenyl)-1-methyl-1,3,5-triazin-2(1H)-one]: 251 to 500 nM. For the molecule `CN(c1ccc(-c2ccc(-c3cc[nH]c(=O)c3)cc2O)nn1)[C@H]1C[C@]2(C)CC[C@](C)(C1)N2` [compound 183, 4-(4-(6-(((1R,3s,5S)-1,5-dimethyl-8-azabicyclo[3.2.1]octan-3-yl)(methyl)amino)pyridazin-3-yl)-3-hydroxyphenyl)pyridin-2(1H)-one], the IC50 was in the range of 10 to 100 nM. Take `CN(c1ccc(-c2cc(F)c(-c3cc[nH]c(=O)c3)cc2O)nn1)[C@H]1C[C@]2(C)CC[C@](C)(C1)N2` [compound 184, 4-(4-(6-(((1R,3s,5S)-1,5-dimethyl-8-azabicyclo[3.2.1]octan-3-yl)(methyl)amino)pyridazin-3-yl)-2-fluoro-5-hydroxyphenyl)pyridin-2(1H)-one]: the IC50 lay within 10 to 100 nM.

As to `CN(c1ccc(-c2ccc(-c3ccnc(OC(F)F)c3)cc2O)nn1)[C@H]1C[C@]2(C)CC[C@](C)(C1)N2` [compound 185, 5-(2-(difluoromethoxy)pyridin-4-yl)-2-(6-(((1R,3s,5S)-1,5-dimethyl-8-azabicyclo[3.2.1]octan-3-yl)(methyl)amino)pyridazin-3-yl)phenol], the IC50 is 501 to 1000 nM. In the case of `COc1cc(-c2ccc(-c3ccc(N(C)[C@H]4C[C@]5(C)CC[C@](C)(C4)N5)nn3)c(O)c2)cc(F)n1` [compound 189, 2-(6-(((1R,3s,5S)-1,5-dimethyl-8-azabicyclo[3.2.1]octan-3-yl)(methyl)amino)pyridazin-3-yl)-5-(2-fluoro-6-methoxypyridin-4-yl)phenol], the IC50 fell in the range of 10 to 100 nM. Same read-out and setting: next, `CN(c1ccc(-c2ccc(-c3cc(O)nc(F)c3)cc2O)nn1)[C@H]1C[C@]2(C)CC[C@](C)(C1)N2` [compound 190, 4-(4-(6-(((1R,3s,5S)-1,5-dimethyl-8-azabicyclo[3.2.1]octan-3-yl)(methyl)amino)pyridazin-3-yl)-3-hydroxyphenyl)-6-fluoropyridin-2-ol]: 101 to 250 nM.

For `CN(c1ccc(-c2cc(F)c(-c3ccn(CF)c(=O)c3)cc2O)nn1)[C@H]1C[C@]2(C)CC[C@](C)(C1)N2` [compound 193, 4-(4-(6-(((1R,3s,5S)-1,5-dimethyl-8-azabicyclo[3.2.1]octan-3-yl)(methyl)amino)pyridazin-3-yl)-2-fluoro-5-hydroxyphenyl)-1-(fluoromethyl)pyridin-2(1H)-one], the IC50 is below 10 nM.

Regarding `CN(c1ccc(-c2ccc(-c3cc(=O)n(C)cn3)cc2O)nn1)[C@H]1C[C@]2(C)CC[C@](C)(C1)N2` [compound 194, 6-(4-(6-(((1R,3s,5S)-1,5-dimethyl-8-azabicyclo[3.2.1]octan-3-yl)(methyl)amino)pyridazin-3-yl)-3-hydroxyphenyl)-3-methylpyrimidin-4(3H)-one], the IC50 fell in the range of 10 to 100 nM.

In the case of `CN(c1ccc(-c2ccc(-c3cc(C#N)n(C)c3)cc2O)nn1)[C@H]1C[C@]2(C)CC[C@](C)(C1)N2` [compound 195, 4-(4-(6-(((1R,3s,5S)-1,5-dimethyl-8-azabicyclo[3.2.1]octan-3-yl)(methyl)amino)pyridazin-3-yl)-3-hydroxyphenyl)-1-methyl-1H-pyrrole-2-carbonitrile], the IC50 was 501 to 1000 nM. For the molecule `CN(c1ccc(-c2ccc(-n3cnc(C#N)c3)cc2O)nn1)[C@H]1C[C@]2(C)CC[C@](C)(C1)N2` [compound 196, 1-(4-(6-(((1R,3s,5S)-1,5-dimethyl-8-azabicyclo[3.2.1]octan-3-yl)(methyl)amino)pyridazin-3-yl)-3-hydroxyphenyl)-1H-imidazole-4-carbonitrile], the IC50 was in the range of 251 to 500 nM. In the case of `CN(c1ccc(-c2cc(F)c(-n3cnc(C#N)c3)cc2O)nn1)[C@H]1C[C@]2(C)CC[C@](C)(C1)N2` [compound 197, 1-(4-(6-(((1R,3s,5S)-1,5-dimethyl-8-azabicyclo[3.2.1]octan-3-yl)(methyl)amino)pyridazin-3-yl)-2-fluoro-5-hydroxyphenyl)-1H-imidazole-4-carbonitrile], the IC50 was above 1000 nM. For the molecule `CN(c1ccc(-c2cc(F)c(-c3cc(=O)n(C)cn3)cc2O)nn1)[C@H]1C[C@]2(C)CC[C@](C)(C1)N2` [compound 198, 6-(4-(6-(((1R,3s,5S)-1,5-dimethyl-8-azabicyclo[3.2.1]octan-3-yl)(methyl)amino)pyridazin-3-yl)-2-fluoro-5-hydroxyphenyl)-3-methylpyrimidin-4(3H)-one], the IC50 is below 10 nM. Still for that read-out and setting: as for `CN(c1ccc(-c2ccc(-c3ccnc(C#N)c3)cc2O)nn1)[C@H]1C[C@]2(C)CC[C@](C)(C1)N2` [compound 199], the figure is 10 to 100 nM; as for `CN(c1ccc(-c2ccc(-n3cc(C#N)cn3)cc2O)nn1)[C@H]1C[C@]2(C)CC[C@](C)(C1)N2` [compound 200, 1-(4-(6-(((1R,3s,5S)-1,5-dimethyl-8-azabicyclo[3.2.1]octan-3-yl)(methyl)amino)pyridazin-3-yl)-3-hydroxyphenyl)-1H-pyrazole-4-carbonitrile], 101 to 250 nM; as for `CCN(c1ccc(-c2ccc(-c3cn[nH]c3)cc2O)nn1)[C@H]1C[C@]2(C)CC[C@](C)(C1)N2` [compound 201, 2-(6-(((1R,3s,5S)-1,5-dimethyl-8-azabicyclo[3.2.1]octan-3-yl)(ethyl)amino)pyridazin-3-yl)-5-(1H-pyrazol-4-yl)phenol], 10 to 100 nM. On to `CCN(c1ccc(-c2cc(F)c(-c3cn[nH]c3)cc2O)nn1)[C@H]1C[C@]2(C)CC[C@](C)(C1)N2` [compound 202, 2-(6-(((1R,3s,5S)-1,5-dimethyl-8-azabicyclo[3.2.1]octan-3-yl)(ethyl)amino)pyridazin-3-yl)-4-fluoro-5-(1H-pyrazol-4-yl)phenol], for which the IC50 fell in the range of 10 to 100 nM.

Still in this test, the particulars now being: Homo sapiens, A673, read-out: A-673 cell viability (IC50).
As to `CN(c1ccc(-c2cc(F)c(-c3ccn(CF)c(=O)c3)cc2O)nn1)[C@H]1C[C@]2(C)CC[C@](C)(C1)N2` [compound 193, 4-(4-(6-(((1R,3s,5S)-1,5-dimethyl-8-azabicyclo[3.2.1]octan-3-yl)(methyl)amino)pyridazin-3-yl)-2-fluoro-5-hydroxyphenyl)-1-(fluoromethyl)pyridin-2(1H)-one], the pIC50 is above 8.52.
